Results: patent EP0268396B1, “4-(benzoyl)thiophene(or furan)-sulfonamide and derivatives thereof for the topical treatment of elevated intraocular pressures” (Merck & Co., Inc., priority 1986, dated 1988)
Counter-ions that a name gives are not always drawn.

Tested on: a-chymotrypsinized rabbit eye
Test: Effect of topically administered drug on the α-chymotrypsin-induced elevation of IOP in the rabbit
Assay type: in vivo
Settings: dose 0.5 %, single 50 µl drop applied topically in hydroxyethylcellulose (HEC) vehicle; maximum, statistically significant drop in IOP during the 5 hour duration of the assay

| SMILES | MAX. IOP DROP (mm Hg) |
| --- | --- |
| CCCCNCc1ccc(C(=O)c2csc(S(N)(=O)=O)c2)cc1 [Example 4-n-BuNHCH2-] | -3.0 |
| CC(C)CN(C)Cc1cccc(C(=O)c2csc(S(N)(=O)=O)c2)c1 [3-i-BuN(CH3)CH2-, 4-[3-(N-lsobutyl-N-methyl)aminomethyl]benzoylthiophene-2 sulfonamide] | -4.0 |
| CC(C)CNCc1cccc(C(=O)c2csc(S(N)(=O)=O)c2)c1 [Example 3-i-BuNHCH2-, 4-[3-(lsobutylaminomethyl)benzoyl]thiophene-2-sulfonamid] | -7.3 |
| NS(=O)(=O)c1cc(C(=O)c2cccc(CNCc3ccccn3)c2)cs1 [3-( [drawing] CH2NHCH2-), 4-[3-(2-Pyridylmethylaminomethyl)]benzoylthiophene-2-sulfonamide dihydrochloride] | -4.0 |
